Data: patent US20250312504A1, “VOLATILE COMPOSITION […] FOR COMPOSITIONS COMPRISING A META-(C1-C4 ALKOXY) […]” (The Procter & Gamble Company, priority 2024, published 2025)

Key:
Type in all cases: physicochemical
[1] = Electronic air freshener device test of DPM solutions (crystallization, weight loss); conditions: for crystal formation in air freshener device over time: 2, 5 and 10 wt. % solutions in DPM, plugged-in device, inspected daily for 4 weeks
Description: Each solution (24 mL) was added to a P&G electronic air freshener device and plugged in to a standard 120v outlet. The devices were inspected and weighed daily for 4 weeks. The mass of each device was no longer recorded after the device stopped losing weight.
FIGS. 3-5 show the % weight loss of each solution in the P&G electronic air freshener device.

[2] = Headspace Method, air/solvent partition out of isopropyl myristate (IPM); conditions: relative to ethylvanillin
Description: (§1) Perfume headspace data is collected for various materials according to the method provided below.
(§2) The partition coefficients are calculated by determining the amount of PRM in the headspace above a solution with a known concentration using a GC/FID-MS (Agilent 7890 and 5977A MSD) with a thermal desorption unit (Gerstel MPS2) and Dynamic Headspace Sampler (Gerstel DHS). This technique allows for automated headspace collections using the MultiPurposeSampler (MPS). The PRMs of interest are prepared at a known concentration in isopropyl myristate (IPM) or dipropylene glycol methyl ether (DPM), and 1 mL is pipetted in a 20 mL headspace vial. […]
(§3) Analytical standards can be obtained from Sigma Aldrich, St. Louis, MO and BioSynth, UK. A stock solution is prepared at approximately 0.5 g/L. The stock solution is then diluted to 4 to 5 concentrations ranging from approximately 0.05 g/L to 0.00005 g/L. These standard solutions are then analyzed by GC/MS. […]
(§4) Quantification of the headspace is performed by the PRM target m/z area response of the perfume component and the linear equation of the calibration plot.
(§5) Perfume headspace data is collected for various materials according to the Headspace Method provided above in the Test Methods section. The Air/Solvent partition coefficients are determined and indexed accordingly (e.g., where the partition coefficient for ethylvanillin is set at 1.00).

[3] = Headspace Method, air/solvent partition out of dipropylene glycol methyl ether (DPM); conditions: relative to ethylvanillin
Description: as §1, §2, §3, §4, §5

Row | SMILES | crystal formation in air freshener device over time [1] | goes into the headspace more than ethylvanillin out of IPM [2] | goes into the headspace more than ethylvanillin out of DPM [3] | weight loss rate of solution in air freshener device ([1]; 2, 5 and 10 wt. % in DPM, most noticeable in the 5% and 10% solutions)
1 | CCOc1cc(C=O)ccc1O [Ethylvanillin, reference compound] | crystals were seen to form |  |  | 
2 | COc1cc(C=O)ccc1O [Vanillin, reference compound] | crystals were seen to form |  |  | 
3 | CCOc1cccc(C=O)c1O [ortho-Ethylvanillin, 2-hydroxy-3-ethoxybenzaldehyde] | no crystals formed | about 6.2 × | about 94 × | steeper weight loss rate than the EV and V solutions
